Values quoted from earlier work as cited in patent US20170106110A1, “ALLERGEN REDUCING COMPOSITION, SPRAY AGENT INCLUDING THE SAME AND SURFACE TREATMENT AGENT INCLUDING THE SAME, ALLERGEN REDUCING METHOD, ALLERGEN REDUCING TEXTILE STRUCTURE AND ALLERGEN REDUCING ARCHITECTURAL INTERIOR MATERIAL” (SC ENVIRONMENTAL SCIENCE CO., LTD., priority 2014, published 2017).

Settings: rat

Substance: zinc gluconate
- value of acute oral toxicity: exceeds 5,000 mg/kg
